This is an account of results in patent US10919885B2, “Compounds and uses thereof” (Yumanity Therapeutics, Inc., priority 2018, dated 2021).

Some results are limits rather than exact numbers.

By IC50 is commonly meant the point on the concentration scale where inhibition reaches its midpoint. Higher therefore signals weaker potency.

The target in the test is human SCD1 (Homo sapiens (Human), UniProt O00767). The experiment in a line: Yeast growth assay, strain expressing human SCD1 as the sole desaturase (reduced growth as surrogate for SCD inhibition). It counts as cell-based. Particulars: yeast with OLE1 deleted expressing human SCD1 from a plasmid; growth read as OD600 after 40 h at 30° C.; top drug concentration 33.3 μM. The procedure: Strains expressing SCD1 or SCD5 as the sole desaturase, the human SCD1 and SCD5 genes were used to evaluate inhibition of SCD1/SCD5 using reduced growth as a surrogate for SCD inhibition. These yeast strains express human SCD1 or SCD5 from a plasmid harbored in a strain in which the yeast OLE1 gene is deleted.
human SCD1, sequence (O00767 whole entry): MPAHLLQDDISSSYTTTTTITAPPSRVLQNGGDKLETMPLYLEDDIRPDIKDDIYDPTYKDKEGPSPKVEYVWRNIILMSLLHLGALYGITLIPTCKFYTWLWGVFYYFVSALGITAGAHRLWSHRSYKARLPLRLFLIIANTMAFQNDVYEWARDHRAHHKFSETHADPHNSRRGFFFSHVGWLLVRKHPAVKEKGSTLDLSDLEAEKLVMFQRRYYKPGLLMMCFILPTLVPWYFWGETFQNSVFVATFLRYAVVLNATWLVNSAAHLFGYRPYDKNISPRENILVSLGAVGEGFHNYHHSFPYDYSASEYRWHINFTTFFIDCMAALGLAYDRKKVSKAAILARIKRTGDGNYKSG
All compound profiling experiments were performed using the same basic protocol. Yeast were cultured using standard techniques in complete synthetic media lacking uracil and containing yeast nitrogen base supplemented with 2% (w/v) glucose (SD-Ura) Starter cultures were inoculated in 3 mL SD-Ura media containing 0.01% tween and 0.2 mM palmitoleic and oleic acid. Cultures were incubated overnight in a 30° C. shaker incubator (225 rpm). Saturated morning cultures were centrifuged, washed in SD-Ura media lacking TWEEN-20 and fatty acids, and then diluted 1:20 in fresh SD-Ura media also lacking TWEEN-20 and fatty acids.
Compound administration was performed in two separate steps. First, 15 μL of SD-Ura was dispensed into clear 384-well assay plates using a MULTIDROP™ Combi reagent dispenser. […] The cultures described above were centrifuged and washed with media lacking TWEEN-20 or oleic and palmitoleic acids.
After yeast delivery, assay plates were incubated under humidified conditions at 30° C. for 40 h. Yeast growth was monitored by reading the OD600 of each well using a microplate reader (Perkin Elmer EnVision™).
With `COC1(c2ccccc2)CCN(C(=O)c2cc(-c3ccccc3)on2)CC1` [Compound 323], the 50% inhibitory concentration (IC50) was greater than 45 µM.

In turn, `O=C(c1cc(-c2ccc3c(c2)OCO3)on1)N1CCC[C@@H]1c1ccccc1` [Compound 358] gave an IC50 greater than 45 µM. For `O=C(c1cc(-c2ccc3c(c2)OCO3)on1)N1CCC(c2ccccc2C(F)(F)F)CC1` [Compound 302, [5-(1,3-benzodioxol-5-yl)isoxazol-3-yl]-[4-[2-(trifluoromethyl)phenyl]-1-piperidyl]methanone] the value was greater than 45 µM; for `O=C(Nc1cnn(Cc2ccccc2)c1)c1cc(N2CCCC2)on1` [Compound 178, N-(1-benzyl-1H-pyrazol-4-yl)-5-(pyrrolidin-1-yl)isoxazole-3-carboxamide], 0.01 µM. To `O=C(Nc1cnn(Cc2cccc(F)c2)c1)c1cc(Cl)on1` [Compound 105, 5-chloro-N-(1-(3-fluorobenzyl)-1H-pyrazol-4-yl)isoxazole-3-carboxamide] belongs 3.9 µM.

`O=C(Nc1cnn(Cc2ccccc2C(F)(F)F)c1)c1cc(-c2ccco2)on1` [Compound 14, 5-(furan-2-yl)-N-(1-(2-(trifluoromethyl)benzyl)-1H-pyrazol-4-yl)isoxazole-3-carboxamide] registered an IC50 greater than 45 µM. For `O=C(c1cc(-c2ccc3c(c2)OCO3)on1)N1CC(c2ccccc2)C1` [Compound 217, [5-(1,3-benzodioxol-5-yl)isoxazol-3-yl]-(3-phenylazetidin-1-yl)methanone] the value was 1.57 µM; for `O=C(c1cc(-c2ccccc2)on1)N1CCC(c2cccc(F)c2)C1` (centres unmarked) [Compound 339], greater than 45 µM. `O=C(c1cc(-c2ccc3c(c2)OCO3)on1)N1CCC[C@H]1c1ccccc1` [Compound 327] had a concentration for half-maximal inhibition (IC50) of 33.5 µM. The compound `O=C(Nc1cnn(Cc2ccccc2)c1)c1cc(N2CCCCC2)on1` [Compound 159, N-(1-benzyl-1H-pyrazol-4-yl)-5-(piperidin-1-yl)isoxazole-3-carboxamide] came in with an IC50 of 0.058 µM. To `O=C(c1cc(-c2ccccc2)on1)N1CCC2(CCN(c3ccccc3)C2)C1` (centres unmarked) [Compound 341] belongs greater than 45 µM; to `O=C(Nc1cnn(Cc2ccccc2)c1)c1cc(-c2ccco2)no1` [Compound 11, N-(1-benzylpyrazol-4-yl)-3-(2-furyl)isoxazole-5-carboxamide], 0.05 µM.

`O=C(c1cc(-c2ccc3c(c2)OCO3)on1)N1CCCC1c1cccc(F)c1` (centres unmarked) [Compound 367] displayed an IC50 greater than 45 µM. To `O=C(c1cc(-c2ccc3c(c2)OCO3)on1)N1CCCC1c1cccc(Br)c1` (centres unmarked) [Compound 388] belongs greater than 45 µM. To `COc1ccc(-c2cc(C(=O)N3CCC[C@H]3c3ccccc3)no2)nc1` [Compound 416] belongs 23.1 µM; to `N#Cc1ccc(-c2cc(C(=O)N3CCC(c4ccccc4)CC3)no2)c(F)c1` [Compound 325, 3-fluoro-4-(3-(4-phenylpiperidine-1-carbonyl)isoxazol-5-yl)benzonitrile], 0.16 µM; to `O=C(Nc1cnn(Cc2cc(F)ccc2C(F)(F)F)c1)c1cc(-c2ccco2)on1` [Compound 36, N-[1-[[5-fluoro-2-(trifluoromethyl)phenyl]methyl]pyrazol-4-yl]-5-(2-furyl)isoxazole-3-carboxamide], greater than 45 µM.

On to `O=C(Nc1cnn(Cc2ccccc2F)c1)c1cc(-c2ccccc2)on1` [Compound 111], for which half-maximal inhibition (IC50) was put at 9.4 µM. For `Cc1cnccc1-c1cc(C(=O)Nc2cnn(Cc3ccccc3)c2)no1` [Compound 201, N-(1-benzyl-1H-pyrazol-4-yl)-5-(3-methylpyridin-4-yl)isoxazole-3-carboxamide] the value was greater than 45 µM. On to `O=C(c1cc(-c2ccccc2)on1)N1CC2(C1)CC(O)(c1ccccc1)C2` [Compound 226, (6-hydroxy-6-phenyl-2-azaspiro[3.3]heptan-2-yl)-(5-phenylisoxazol-3-yl)methanone], for which the IC50 was determined as 12 µM.

The compound `O=C(c1cc(-c2ccccn2)on1)N1CCC[C@H]1c1ccccc1` [Compound 408] returned a half-maximal inhibitory concentration (IC50) greater than 45 µM. Turning to `O=C(c1cc(-c2ccc(Cl)cn2)on1)N1CC(Cc2ccccc2)C1` [Compound 254], the IC50 was greater than 45 µM. For `COc1cccc(C2CCCN2C(=O)c2cc(-c3ccc4c(c3)OCO4)on2)c1` (centres unmarked) [Compound 365] the value was greater than 45 µM; for `O=C(c1cc(-c2ccc3c(c2)OCO3)on1)N1CCCC1C1CC1` (centres unmarked) [Compound 407], greater than 45 µM; for `O=C(c1cc(-c2ccccn2)on1)N1CCC(c2ccccc2)C1` (centres unmarked) [Compound 351], greater than 45 µM.

In turn, `O=C(c1cc(-c2ccccc2)on1)N1CCn2ccnc2C1` [Compound 268] returned an IC50 of 36 µM. To `N#Cc1cccc(-c2cc(C(=O)N3CCC[C@H]3c3ccccc3)no2)c1` [Compound 403] belongs 31.1 µM; to `O=C(c1cc(-c2ccc3c(c2)OCO3)on1)N1CCCC1c1ncco1` (centres unmarked) [Compound 423], greater than 45 µM; to `COC1(c2cc(C(=O)Nc3cnn(Cc4ccccc4)c3)no2)CCC1` [Compound 120], 0.94 µM. To `O=C(Nc1cnn(Cc2cnccc2C(F)(F)F)c1)c1cc(-c2ccco2)on1` [Compound 198, 5-(furan-2-yl)-N-(1-{[4-(trifluoromethyl)pyridin-3-yl]methyl}-1H-pyrazol-4-yl)-1,2-oxazole-3-carboxamide] belongs greater than 45 µM. For `O=C(Nc1cnn(Cc2cccc(F)c2)c1)c1cc(-c2cncs2)on1` [Compound 69, N-(1-(3-fluorobenzyl)-1H-pyrazol-4-yl)-5-(thiazol-5-yl)isoxazole-3-carboxamide] the value was 0.19 µM. As for `COc1ccc(C2CCCN2C(=O)c2cc(-c3ccc4c(c3)OCO4)on2)c(F)c1` (centres unmarked) [Compound 452], the IC50 was greater than 45 µM. To `O=C(c1cc(-c2ccccc2Cl)on1)N1CCC(c2ccccc2)C1` (centres unmarked) [Compound 333] belongs greater than 45 µM; to `O=C(Nc1cnn(Cc2ccccc2)c1)c1cc(-c2nccs2)on1` [Compound 110, N-(1-benzyl-1H-pyrazol-4-yl)-5-(thiazol-2-yl)isoxazole-3-carboxamide], 8.9 µM.

With “5-acetyl-N-(1-(3-fluorobenzyl)-1H-pyrazol-4-yl)isoxazole-3-carboxamide [Compound 91]”, it took 0.439 µM to reach half-maximal inhibition (IC50). For `O=C(c1cc(-c2ccc3c(c2)OCO3)on1)N1CCCC1c1ccnc(Br)c1F` (centres unmarked) [Compound 459] the value was greater than 45 µM; for `COCc1ncc(-c2cc(C(=O)Nc3cnn(Cc4ccccc4)c3)no2)s1` [Compound 140, N-(1-benzyl-1H-pyrazol-4-yl)-5-(2-(methoxymethyl)thiazol-5-yl)isoxazole-3-carboxamide], 5.12 µM.

Take `C=C(C)c1cc(C(=O)Nc2cnn(Cc3cccc(F)c3)c2)no1` [Compound 58, N-(1-(3-fluorobenzyl)-1H-pyrazol-4-yl)-5-(prop-1-en-2-yl)isoxazole-3-carboxamide]: inhibition was half-maximal at 0.02 µM (IC50). For `Cc1ncc(-c2cc(C(=O)Nc3cnn(Cc4ccccc4)c3)no2)o1` [Compound 164, N-(1-benzyl-1H-pyrazol-4-yl)-5-(2-methyloxazol-5-yl)isoxazole-3-carboxamide], 11 µM corresponded to half-maximal inhibition (IC50). For `Cc1nn(Cc2ccccc2)c(C)c1NC(=O)c1cc(-c2ccc3c(c2)OCO3)on1` [Compound 5] the value was greater than 45 µM. To `COc1ccc(C2CCCN2C(=O)c2cc(-c3ccc(F)c(OC)c3)on2)cc1` (centres unmarked) [Compound 383] belongs 36.6 µM.
